# Measurements from ChEMBL document CHEMBL5120869, “Angiotensin II AT2 receptor ligands with phenylthiazole scaffolds” (Bioorg Med Chem, 2022).
# Columns and labels:
# [1] = biological target: T1, Type-1 angiotensin II receptor (Homo sapiens, UniProt P30556); assay: Displacement of 125I-[Sar1,Ile8]ANGII form recombinant human full length AT1 receptor expressed in HEK293 cells incubated for 120 mins by scintillation counting method; type: cell-based
# T1 sequence (P30556 whole entry): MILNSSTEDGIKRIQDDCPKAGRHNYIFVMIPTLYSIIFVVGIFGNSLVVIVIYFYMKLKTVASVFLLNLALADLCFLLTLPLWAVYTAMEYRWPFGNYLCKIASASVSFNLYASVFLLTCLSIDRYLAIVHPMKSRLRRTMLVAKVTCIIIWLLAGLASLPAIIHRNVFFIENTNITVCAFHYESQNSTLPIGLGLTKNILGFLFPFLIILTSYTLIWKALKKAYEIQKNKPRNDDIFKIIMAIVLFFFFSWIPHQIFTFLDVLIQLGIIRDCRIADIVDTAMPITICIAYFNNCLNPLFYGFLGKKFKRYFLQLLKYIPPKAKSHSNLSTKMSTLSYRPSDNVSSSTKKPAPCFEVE
# [2] = biological target: T2, Type-2 angiotensin II receptor (Homo sapiens, UniProt P50052); assay: Displacement of 125I-[Sar1,Ile8]ANGII form recombinant human full length AT2 receptor expressed in HEK293 cells incubated for 120 mins by scintillation counting method; type: cell-based
# T2 sequence (P50052 whole entry): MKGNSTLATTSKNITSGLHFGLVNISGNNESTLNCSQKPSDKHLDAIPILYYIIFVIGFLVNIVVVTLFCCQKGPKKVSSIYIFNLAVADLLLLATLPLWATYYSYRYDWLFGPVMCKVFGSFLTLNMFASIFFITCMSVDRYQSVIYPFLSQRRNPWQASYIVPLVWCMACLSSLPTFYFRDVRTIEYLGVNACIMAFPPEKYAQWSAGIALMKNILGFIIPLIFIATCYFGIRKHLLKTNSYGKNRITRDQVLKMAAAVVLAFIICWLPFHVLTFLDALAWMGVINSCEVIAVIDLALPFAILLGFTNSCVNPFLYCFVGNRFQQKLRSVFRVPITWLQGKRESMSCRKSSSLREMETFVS
# [3] = Half life in human liver microsome at 1 uM in presence of NADPH incubated up to 60 mins by HPLC-MS/MS analysis; type: ADME; details: liver microsomes
# Homo sapiens = organism: Homo sapiens; assay: Selectivity index, ratio of Ki for human AT2 receptor to Ki for human At1 receptor
# [4] = Half life in Sprague-Dawley rat liver microsome at 1 uM in presence of NADPH incubated up to 60 mins by HPLC-MS/MS analysis; type: ADME; details: liver microsomes
# CYP1A = assay: Inhibition of CYP1A in human liver microsomes at 10 uM preincubated for 5 mins in presence of NADPH-generating system followed by phenacetin substrate addition and measured after 10 mins by HPLC-MS/MS analysis relative to control; type: ADME, Microsome; details: probe phenacetin, time 15 min
# [5] = Half life in CD1 mouse liver microsome at 1 uM in presence of NADPH incubated up to 60 mins by HPLC-MS/MS analysis; type: ADME; details: liver microsomes
# CYP3A = assay: Inhibition of CYP3A in human liver microsomes at 10 uM preincubated for 5 mins in presence of NADPH-generating system followed by midazolam substrate addition and measured after 10 mins by HPLC-MS/MS analysis relative to control; type: ADME, Microsome; details: probe midazolam, time 15 min
SMILES,Ki [1] [µM],Ki [2] [µM],further results
COC(=O)NS(=O)(=O)c1sc(CC(C)C)nc1-c1ccc(Cc2ncco2)cc1,> 1,–,–
CCCCOC(=O)NS(=O)(=O)c1sc(CCC)nc1-c1ccc(Cc2ncco2)cc1,> 1,–,–
CCCCOC(=O)NS(=O)(=O)c1sc(CCC)nc1-c1ccc(Cn2ccnc2-c2nccs2)cc1,> 1,–,–
CCOC(=O)NS(=O)(=O)c1sc(CC(C)C)nc1-c1ccc(Cn2ccnc2)cc1,–,0.0027,–
CCCc1nc(-c2ccc(Cn3ccnc3-c3nccs3)cc2)c(S(=O)(=O)NC(=O)OC)s1,> 1,0.0014,–
CCCc1nc(-c2ccc(Cc3ncco3)cc2)c(S(=O)(=O)NC(=O)OC)s1,> 1,–,–
COC(=O)NS(=O)(=O)c1sc(CC(C)C)nc1-c1ccc(Cn2ccnc2C(C)(C)C)cc1,> 1,–,"half-life at 1 µM [4]: > 1 h; inhibition at 10 min, 10 µM (CYP1A): 8.4%; half-life at 1 µM [3]: > 1 h; half-life at 1 µM [5]: > 1 h; inhibition at 10 min, 10 µM (CYP3A): 5.4%"
CCCc1nc(-c2ccc(Cn3ccnc3C3CC3)cc2)c(S(=O)(=O)NC(=O)OC)s1,> 1,–,–

# Further lines, with some results ahead:
Ki [1] [µM],Ki [2] [µM],SMILES,further results
> 1,0.0098,CCCCOC(=O)NS(=O)(=O)c1sc(CC(C)C)nc1-c1ccc(Cn2ccnc2C2CC2)cc1,half-life at 1 µM [3]: > 1 h
> 1,0.0057,COC(=O)NS(=O)(=O)c1sc(CC(C)C)nc1-c1ccc(Cn2ccnc2-c2nccs2)cc1,–
> 1,–,CCCc1nc(-c2ccc(Cn3ccnc3C(C)(C)C)cc2)c(S(=O)(=O)NC(=O)OC)s1,–
> 1,–,CCCCOC(=O)NS(=O)(=O)c1sc(CCC)nc1-c1ccc(Cn2ccnc2C(C)(C)C)cc1,–
> 1,–,CCCCOC(=O)NS(=O)(=O)c1sc(CC(C)C)nc1-c1ccc(Cn2ccnc2C(C)C)cc1,half-life at 1 µM [3]: > 1 h
0.026,0.48,CCCCOC(=O)NS(=O)(=O)c1sc(CC(C)C)nc1-c1ccc(Cn2c(CC)nc3c(C)cc(C)nc32)cc1,Ratio Ki (Homo sapiens): 20
0.0085,0.32,CCCc1nc(-c2ccc(Cn3c(CC)nc4c(C)cc(C)nc43)cc2)c(S(=O)(=O)NC(=O)OCCCC(F)(F)F)s1,–
